Experiments:
[1] = tested on: Plasmodium falciparum (3D7); test: In-vitro potency against P. falciparum (3D7 strain), SYBR Green growth inhibition; assay type: cell-based; conditions: P. falciparum 3D7, asexual intraerythrocytic stage, SYBR Green fluorescence
Method: Cultures of the widely-used malaria reference strain of chloroquine-sensitive Plasmodium falciparum (3D7) were maintained in a 1.25% suspension of human red blood cells cultured in RPMI 1640 medium (pH 7.3) supplemented with 0.5% Albumax II (Gibco Life Technologies, San Diego, CA), 12 mM sodium bicarbonate, 0.2 mM hypoxanthine, and 20 mg/L gentamicin at 37° C., in an atmosphere of 1% O2, 3% CO2 with a balance of nitrogen (Human malaria parasites in continuous culture. Trager W et al., 1976, Science, 193: 673-675). Growth inhibition was quantified using a fluorescence assay utilising the binding of SYBR Green (Novel, rapid, and inexpensive cell-based quantification of antimalarial drug efficacy. Bennett T. N. et al., 2004, Antimicrob. Agents Chemother., 48: 1807-1810) to double stranded DNA, which emits a fluorescent signal at 528 nm after excitation at 485 nm. Mefloquine was used as a drug control to monitor the quality of the assay (Z′=0.6 to 0.8, where Z′ is a measure of the discrimination between the positive and negative controls on a screen plate). Hits were confirmed by full-potency curves with dose-response curves determined from a minimum of 3 independent experiments. Compound bioactivity was expressed as EC50, the effective concentration of compound causing 50% parasite death. All data were processed using IDBS ActivityBase. Raw data was converted into percent inhibition through linear regression by setting the high inhibition control as 100% and the no inhibition control as 0%. Quality control criteria for passing plates were as follows: z′>0.5, S:B>3, % CV(no inhibition control)<15. The formula used to calculate z′ is
Curve fitting was carried out using the following 4 parametric equation:
where A=% inhibition at bottom, B=% inhibition at top, C=EC50, D=slope, x=inhibitor concentration and y=% inhibition. If curve definition was poor, B was fixed to 100.

[2] = Microsomal intrinsic clearance, human liver microsomes; assay type: in vitro ADME; conditions: human liver microsomes (pooled), pH 7.4, 45 min, NADPH
Method: (§1) The compounds of the invention (1 μM) were incubated in suspension with human (rat or mouse) liver microsomes pooled from multiple donors (>10) and samples taken at 5 time points over the course of a 45 min experiment and analysed by LC MS/MS. Microsomes (final protein concentration 0.5 mg/mL), 0.1 M phosphate buffer pH 7.4 and test compound (final substrate concentration 1 μM; final DMSO concentration 0.25%) were pre-incubated at 37° C. prior to the addition of NADPH (final concentration 1 mM) to initiate the reaction. A minus cofactor control incubation was included for each compound tested where 0.1 M phosphate buffer pH 7.4 is added instead of NADPH (minus NADPH). All incubations were performed in duplicate for each test compound and the results averaged. Each compound is incubated for 0, 5, 15, 30 and 45 min. The control (minus NADPH) was incubated for 45 min only. The reactions were stopped by transferring incubate into acetonitrile at the appropriate time points, in a 1:3 ratio.
(§2) The termination plates were centrifuged at 3,000 rpm for 20 min at 4° C. to precipitate the protein. Following protein precipitation, the sample supernatants were combined in cassettes of up to 4 compounds, internal standard added and samples analysed by LC-MS/MS. From a plot of ln peak area ratio (compound peak area/internal standard peak area) against time, the gradient of the line is determined. Subsequently, half-life (t½) and intrinsic clearance (CLint) are calculated using the equations below: Elimination rate constant (k)=(−gradient) Half-life (t1/2)(min)=0.693/k Intrinsic clearance (i.e. CLint)(μL/min/mg protein)=V×0.693/t1/2 where V=Incubation volume (μL)/Microsomal protein (mg)
(§3) Verapamil and dextromethorphan were included in the assay as controls and if the values for these compounds were not within the specified limits the results were rejected and the experiment repeated.

[3] = Microsomal intrinsic clearance, rat liver microsomes; assay type: in vitro ADME; conditions: rat liver microsomes (pooled), pH 7.4, 45 min, NADPH
Method: as §1, §2, §3

[4] = Microsomal intrinsic clearance, mouse liver microsomes; assay type: in vitro ADME; conditions: mouse liver microsomes (pooled), pH 7.4, 45 min, NADPH
Method: as §1, §2, §3

[5] = PK parameters in rat (IV and PO); assay type: in vivo; conditions: for PK parameters (rat): F: 1 mg/kg IV and 3 mg/kg PO; for clearance / half-life: Sprague Dawley, plasma, IV arm, 1 mg/kg; for clearance: read-out: PK parameters (rat): Cl; for half-life: read-out: PK parameters (rat): t1/2
Method: Swiss Albino male mice or Sprague Dawley rats (TCGLS, India) were kept under a 12/12 h light/dark cycle, 22±2° C. temp, 50±20% RH with free access to food and water ad libitum. Mice were selected randomly/based on body weight/age and fasted for 4 h before dosing and until 2 h after dosing. Three mice were used per route of administration. For IV determination (1 mg/kg, dose volume 5 ml/kg) the dose was administered by injection into the lateral tail vein (rats are anaesthetized using 3% v/v isoflurane: oxygen mixture). For PO determination (3 mg/kg, dose volume 10 ml/kg) the dose was administered by oral gavage in conscious animals.
(§4) Blood samples were taken (mice 50 μL, rat 100 μL) at regular timepoints from the saphenous vein (conscious restrained animals) and collected into heparinized capillary tubes and transferred into 0.5 mL microcentrifuge tubes. Samples were processed by centrifugation at 1640 g for 10 min at +4° C. within 30 min of collection and stored at −20° C. until bioanalysis. All samples were mixed with ice-cold acetonitrile containing an internal standard, centrifuged at 4000 rpm for 15 min at 15° C. Supernatant was then half diluted in water and analysed by LCMS/MS analysis to determine analyte peak area/IS peak area (the ratio). Concentration (plasma) of the compounds of the invention was determined by reference to a calibration curve. Pharmacokinetic parameters (Cmax, Tmax, AUC, t1/2, CL, Vd, BA) were calculated using WinNonLin, using non-compartmental analysis (Phoenix, Version 6.3). The pharmacokinetic parameters for compounds shown in Table 2 support that compounds of the invention have pharmacokinetic properties associated with treatment of malaria via the oral route and that compounds have substantially longer half-lives than the reference compound.

[6] = Hepatocyte intrinsic clearance, cryopreserved human hepatocytes; assay type: in vitro ADME; conditions: cryopreserved human hepatocytes in suspension (pooled), 60 min
Method: The compounds of the invention (3 μM) were incubated in suspension with cryopreserved human (rat or mouse) hepatocytes pooled from multiple donors (>10) and samples taken at 6 time points over the course of a 60 min experiment and analysed by LC MS/MS. Williams E media supplemented with 2 mM L-glutamine and 25 mM HEPES and test compound (final substrate concentration 3 μM; final DMSO concentration 0.25%) were pre-incubated at 37° C. prior to the addition of a suspension of cryopreserved hepatocytes (final cell density 0.5×10^6 viable cells/mL in Williams E media supplemented with 2 mM L glutamine and 25 mM HEPES) to initiate the reaction. The final incubation volume is 500 μL. The reactions are stopped by transferring aliquots of incubate into acetonitrile at the appropriate time points, in a 1:2 ratio. The termination plates are centrifuged at 3,000 rpm for 20 min at 4° C. to precipitate the protein. Following protein precipitation, the sample supernatants were combined in cassettes of up to 4 compounds, internal standard was added and analysed by LC MS/MS. From a plot of ln peak area ratio (compound peak area/internal standard peak area) against time, the gradient of the line was determined. Subsequently, half-life (t½) and intrinsic clearance (CLint) were calculated using the equations below: Elimination rate constant (k)=(−gradient) Half-life (t½) (min)=0.693/k Intrinsic clearance (i.e. CLint) (μL/min/million cells)=V×0.693/t1/2
where V=Incubation volume (μL)/Number of cells
Verapamil and umbelliferone were included in the assay as controls and if the values for these compounds are not within the specified limits the results were rejected and the experiment repeated.

[7] = PK parameters in mouse (IV and PO); assay type: in vivo; conditions: for PK parameters (mouse): F: 10 mg/kg IV and 10 mg/kg PO; for clearance / half-life: male, Swiss Albino, plasma, IV arm, 10 mg/kg; for clearance: read-out: PK parameters (mouse): Cl; for half-life: read-out: PK parameters (mouse): t1/2
Method: Swiss Albino male mice or Sprague Dawley rats (TCGLS, India) were kept under a 12/12 h light/dark cycle, 22±2° C. temp, 50±20% RH with free access to food and water ad libitum. Mice were selected randomly/based on body weight/age and fasted for 4 h before dosing and until 2 h after dosing. Three mice were used per route of administration. […]
as §4

SMILES	EC50 [1] [nM]	microsomal CLint at 1 μM [2] [µL/min/mg]	microsomal CLint at 1 μM [3] [µL/min/mg]	microsomal CLint at 1 μM [4] [µL/min/mg]	PK parameters (rat): F [5]	clearance [5] [mL/min/kg]	half-life [5] [h]	hepatocyte CLint at 3 μM [6] [µL/min/1e6 cells]	PK parameters (mouse): F [7]	clearance [7] [mL/min/kg]	half-life [7] [h]
CC(C)Oc1ccc(C2C(C(=O)Nc3ccc(F)c(C#N)c3)c3ccccc3C(=O)N2CC(F)(F)F)cn1 (racemic) [(2), (+, −)-N-(3-cyano-4-fluorophenyl)-3-(6-isopropoxypyridin-3-yl)-1-oxo-2-(2,2,2-trifluoroethyl)-1,2,3,4-tetrahydroisoquinoline-4-carboxamide]	80	13	–	–	–	–	–	–	–	–	–
N#Cc1cc(NC(=O)[C@H]2c3ccccc3C(=O)N(CC(F)(F)F)[C@@H]2c2ccc(C(F)(F)F)nc2)ccc1F [(3a), (3S,4S)—N-(3-cyano-4-fluorophenyl)-1-oxo-2-(2,2,2-trifluoroethyl)-3-(6-(trifluoromethyl)pyridin-3-yl)-1,2,3,4-tetrahydroisoquinoline-4-carboxamide]	70	6	< 10	< 10	F = 95%	0.667	11	< 10	F = 95%	1.67	11
N#Cc1cc(NC(=O)[C@H]2c3ccccc3C(=O)N(CC(F)(F)F)[C@@H]2c2ccc(OCC(F)(F)F)nc2)ccc1F [(4a), (3S,4S)—N-(3-cyano-4-fluorophenyl)-1-oxo-3-(6-(2,2,2-trifluoroethoxy)pyridin-3-yl)-2-(2,2,2-trifluoroethyl)-1,2,3,4-tetrahydroisoquinoline-4-carboxamide]	53	< 3	< 10	< 10	F = 33%	0.5	85	< 3	F = 56%	2.67	41
CC(=O)Nc1ccc([C@@H]2[C@@H](C(=O)Nc3ccc(F)c(C#N)c3)c3ccccc3C(=O)N2CC(F)(F)F)cn1 [(5a), (3S,4S)-3-(6-acetamidopyridin-3-yl)-N-(3-cyano-4-fluorophenyl)-1-oxo-2-(2,2,2-trifluoroethyl)-1,2,3,4-tetrahydroisoquinoline-4-carboxamide]	40	–	–	–	–	–	–	–	–	–	–
N#Cc1ccc([C@@H]2[C@@H](C(=O)Nc3ccc(F)c(C#N)c3)c3ccccc3C(=O)N2CC(F)(F)F)cn1 [(6a), (3S,4S)—N-(3-cyano-4-fluorophenyl)-3-(6-cyanopyridin-3-yl)-1-oxo-2-(2,2,2-trifluoroethyl)-1,2,3,4-tetrahydroisoquinoline-4-carboxamide]	68	< 3	–	< 10	–	–	–	< 3	–	–	–

Next, values leading:

EC50 [1] [nM]	microsomal CLint at 1 μM [2] [µL/min/mg]	microsomal CLint at 1 μM [3] [µL/min/mg]	microsomal CLint at 1 μM [4] [µL/min/mg]	PK parameters (rat): F [5]	clearance [5] [mL/min/kg]	half-life [5] [h]	hepatocyte CLint at 3 μM [6] [µL/min/1e6 cells]	PK parameters (mouse): F [7]	clearance [7] [mL/min/kg]	half-life [7] [h]	SMILES
68	< 3	–	< 10	F = 108%	1.5	38	< 10	F = 108%	2.67	18	N#Cc1cc(NC(=O)[C@H]2c3ccccc3C(=O)N(CC(F)(F)F)[C@@H]2c2ccc(OC(F)F)nc2)ccc1F [(7a), (3S,4S)—N-(3-cyano-4-fluorophenyl)-3-(6-(difluoromethoxy)pyridin-3-yl)-1-oxo-2-(2,2,2-trifluoroethyl)-1,2,3,4-tetrahydroisoquinoline-4-carboxamide]
59	< 3	–	< 10	–	–	–	4	F = 37%	3.33	56	N#Cc1cc(NC(=O)[C@H]2c3ccccc3C(=O)N(CC(F)(F)F)[C@@H]2c2ccc(C(F)F)nc2)ccc1F [(8a), (3S,4S)—N-(3-cyano-4-fluorophenyl)-3-(6-(difluoromethyl)pyridin-3-yl)-1-oxo-2-(2,2,2-trifluoroethyl)-1,2,3,4-tetrahydroisoquinoline-4-carboxamide]

From patent US12509439B2, “Anti-malarial agents” (UNIVERSITY OF KENTUCKY RESEARCH FOUNDATION, priority 2020, dated 2025)
